Source: US20250264459A1, “IN VITRO ASSAY TO PREDICT CARDIOTOXICITY” (Stemina Biomarker Discovery, Inc., priority 2018, published 2025)
Where two headings read alike, the source gives them in different places.

Experiments:
[1] = system: human iPSC-CM (iCell Cardiomyocytes2); test: Spent-media metabolomics (LC-MS) cardiotoxicity prediction models, blinded test set; conditions: for Global Tox Model Prediction: cardiotoxic vs non-cardiotoxic, at the Exposure (μM) listed per compound in Table 3, model from confirmed metabolites and viability; for Functional Model Prediction: functional vs general/structural cardiotoxicants, at the Exposure (μM) listed per compound in Table 3
[2] = cited from earlier work
[3] = system: human iPSC-CM (iCell Cardiomyocytes); test: Dose-response cell viability (CellTiter-Fluor) in iPSC-derived cardiomyocytes, maximum acceptable viability exposure; assay type: cell-based
Procedure: Metabolomic data was acquired to identify non-cytotoxic exposure levels and identify biomarkers of cardiotoxicity from a dose-response experiment using spent medium of iPSC-CM treated with 53 of the compounds in the training set. Briefly, human iPSC-CM (iCell® Cardiomyocytes, cat #R1007, Cellular Dynamics International) were exposed to eight concentrations of each training set compound. Spent media was collected for LC-MS analysis and cell viability was assessed with the CellTiter-Fluor Cell Viability Assay (Promega). Spent media samples were prepared and analyzed using the methods developed in Specific Aim 1. The spent media samples from iPSC-CM treated with 10 representative cardiotoxic and non-cardiotoxic compounds were analyzed with all four LC-MS methods to rank biological significant secretome features by predictive capacity. […]
The goal of the concentration-response phase of biomarker identification was to identify non-cytotoxic exposure levels that change iPSC-CM metabolism. The method included modeling feature response, calculating maximum acceptable viability (MAVE), determining response at Cmax, and MAVE, reviewing the top 4 responding features, and selecting the highest tested exposure with 90% viability.

[4] = highest exposure tested with ≥90% viability, iPSC-CM, eight concentrations

Compound | Global Tox Model Prediction [1] | Functional Model Prediction [1] | Cmax Total ([2]; therapeutic total Cmax) [nM] | MAVE (Maximum Acceptable Viability Exposure) ([3]; human) [µM] | Cmax Total ([2]; in vivo) [nM] | MAVE (Maximum Acceptable Viability Exposure) [3, 4] [µM]
CC(=O)Oc1ccccc1C(=O)O [Acetylsalicylic Acid] | − | − | 10000 |  |  | 
CC(C)COCC(CN(Cc1ccccc1)c1ccccc1)N1CCCC1 (stereo not shown) [Bepridil] | + | + | 3300 |  |  | 
CS(=O)(=O)OCCCCOS(C)(=O)=O [Busulfan] | + | − | 50000 |  |  | 
O=C(O)COCCN1CCN(C(c2ccccc2)c2ccc(Cl)cc2)CC1 (stereo not shown) [Cetirizine] |  | − |  |  |  | 
Cc1nc(Nc2ncc(C(=O)Nc3c(C)cccc3Cl)s2)cc(N2CCN(CCO)CC2)n1 [Dasatinib] |  |  | 720 | 10 |  | 
COc1cccc2c1C(=O)c1c(O)c3c(c(O)c1C2=O)C[C@@](O)(C(C)=O)C[C@@H]3O[C@H]1C[C@H](N)[C@H](O)[C@H](C)O1 [Daunorubicin] |  |  | 89000 | 0.1 |  | 
CCN[C@@H](C)Cc1cccc(C(F)(F)F)c1 [Dexfenfluramine] |  |  |  | 30 | 400 | 
CCN1/C(=C/C=C/C=C/c2sc3ccccc3[n+]2CC)Sc2ccccc21 [Dithiazanine Iodide] |  |  | 100 | 0.1 |  | 
CN(CCOc1ccc(NS(C)(=O)=O)cc1)CCc1ccc(NS(C)(=O)=O)cc1 [Dofetilide] |  |  | 8 | 100 |  | 
COc1cccc2c1C(=O)c1c(O)c3c(c(O)c1C2=O)C[C@@](O)(C(=O)CO)C[C@@H]3O[C@H]1C[C@H](N)[C@H](O)[C@H](C)O1 [Doxorubicin] |  |  | 15300 | 0.1 |  | 
COc1ccc(C(=O)Nc2ccccc2CCC2CCCCN2C)cc1 (stereo not shown) [Encainide] |  |  | 710 | 100 |  | 
C#Cc1cccc(Nc2ncnc3cc(OCCOC)c(OCCOC)cc23)c1 [Erlotinib] |  |  | 3800 | 3 |  | 
O=c1[nH]cc(F)c(=O)[nH]1 [Fluorouracil] |  |  | 4600 | 100 |  | 
CCCCCCc1ccc(O)cc1O [Hexylresorcinol] |  |  | 1000 | 30 |  | 
CC(=O)[C@]1(O)Cc2c(O)c3c(c(O)c2[C@@H](O[C@H]2C[C@H](N)[C@H](O)[C@H](C)O2)C1)C(=O)c1ccccc1C3=O [Idarubicin] |  |  | 120 | 0.1 |  | 
CC(C)NCC(O)c1ccc(O)c(O)c1 (stereo not shown) [Isoproterenol] |  |  | 10 | 100 |  | 
CS(=O)(=O)CCNCc1ccc(-c2ccc3ncnc(Nc4ccc(OCc5cccc(F)c5)c(Cl)c4)c3c2)o1 [Lapatinib] |  |  | 4180 | 10 |  | 
CC[C@H](OC(C)=O)C(C[C@H](C)N(C)C)(c1ccccc1)c1ccccc1 [Levomethadyl Acetate] | + | + |  |  | 600 | 
CCOC(=O)N1CCC(=C2c3ccc(Cl)cc3CCc3cccnc32)CC1 [Loratadine] |  | − |  |  |  | 
Cc1occc(=O)c1O [Maltol] |  |  | 30000 | 100 |  | 
CN(C)CCN(Cc1cccs1)c1ccccn1 [Methapyrilene] |  |  | 15300 | 100 |  | 
COC(=O)c1ccc(O)cc1 [Methylparaben] |  |  | 230 | 100 |  | 

Compound | Global Tox Model Prediction [1] | Functional Model Prediction [1] | Cmax Total ([2]; therapeutic total Cmax) [nM] | MAVE (Maximum Acceptable Viability Exposure) ([3]; human) [µM] | Cmax Total ([2]; in vivo) [nM] | MAVE (Maximum Acceptable Viability Exposure) [3, 4] [µM]
Cc1cn(-c2cc(NC(=O)c3ccc(C)c(Nc4nccc(-c5cccnc5)n4)c3)cc(C(F)(F)F)c2)cn1 [Nilotinib] | + | − | 3000 |  |  | 
CNCCC=C1c2ccccc2CCc2ccccc21 [Nortriptyline] |  |  | 570 | 1 |  | 
CCCN1C[C@H](CSC)C[C@@H]2c3cccc4[nH]cc(c34)C[C@H]21 [Pergolide] |  |  | 3 | 30 |  | 
CCCOC(=O)c1cc(O)c(O)c(O)c1 [Propyl Gallate] |  |  | 3000 | 30 |  | 
CNC(=C[N+](=O)[O-])NCCSCc1ccc(CN(C)C)o1 [Ranitidine] |  |  | 1700 | 100 |  | 
CS(=O)(=O)c1ccc(C2=C(c3ccccc3)C(=O)OC2)cc1 [Rofecoxib] |  |  | 1700 | 100 |  | 
CN(CCOc1ccc(CC2SC(=O)NC2=O)cc1)c1ccccn1 (stereo not shown) [Rosiglitazone] |  | − |  |  |  | 
O=C1NCCN1CCN1CCC(c2cn(-c3ccc(F)cc3)c3ccc(Cl)cc23)CC1 [Sertindole] |  |  | 320 | 0.3 |  | 
CCCc1nn(C)c2c(=O)[nH]c(-c3cc(S(=O)(=O)N4CCN(C)CC4)ccc3OCC)nc12 [Sildenafil] | − | − |  |  |  | 
OC[C@@H](O)[C@@H](O)[C@H](O)[C@@H](O)CO [Sorbitol] |  |  | 3900 | 100 |  | 
CC(C)NCC(O)c1ccc(NS(C)(=O)=O)cc1 (stereo not shown) [Sotalol] | + | + | 15000 |  |  | 
OC[C@H]1O[C@@](CO)(O[C@H]2O[C@H](CO)[C@@H](O)[C@H](O)[C@H]2O)[C@@H](O)[C@@H]1O [Sucrose] | − | − | 1800 |  |  | 
CCN(CC)CCNC(=O)c1c(C)[nH]c(/C=C2\C(=O)Nc3ccc(F)cc32)c1C [Sunitinib] |  |  | 250 | 1 |  | 
CCCCCNC(=N)N/N=C/c1c[nH]c2ccc(OC)cc12 [Tegaserod] |  |  | 80 | 3 |  | 
CC(C)(C)c1ccc(C(O)CCCN2CCC(C(O)(c3ccccc3)c3ccccc3)CC2)cc1 (stereo not shown) [Terfenadine] |  |  | 300 | 3 |  | 
c1ccc2[nH]c(-c3cscn3)nc2c1 [Thiabendazole] |  |  | 30800 | 100 |  | 
Cc1onc(-c2ccccc2)c1-c1ccc(S(N)(=O)=O)cc1 [Valdecoxib] |  |  | 510 | 100 |  | 
COc1cc2c(Nc3ccc(Br)cc3F)ncnc2cc1OCC1CCN(C)CC1 [Vandetanib] |  |  | 3300 | 1 |  | 
OC[C@@H](O)[C@H](O)[C@@H](O)CO [Xylitol] | − | − | 500 |  |  | 
Arsenic Trioxide |  |  | 12100 |  |  | 10
Phenylphenol |  |  | 90 |  |  | 100
